Where a SMILES comes first, the peptide text is derived from it. The star is where a group is joined. Myristoyl = CCCCCCCCCCCCCC(=O)*
What was measured:
[1] = test system: MDA-MB-231 cells; assay type: cell-based, human; settings: 50 μM peptide, 48 hours, n = 1;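 as to COI, Live Single Cells (Cell Count): live means Hoechst-negative events among single cells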
Excerpt: (§1) Non-adherent cells were removed during the washing steps.

[2] = test system: CD44^hiCD24^lo CSCs in MDA-MB-231 cells; assay: FACS analysis of CD44^hiCD24^lo cancer stem cells in MDA-MB-231 cells treated with P1 analogues; assay type: cell-based, human; settings: 50 μM peptide, 48 hours; for CD44^hiCD24^lo CSCs (%) / COI, Live Single CD44^hiCD24^lo CSCs (Cell Count): n = 1; for Average Inhibition of CSCs (%) / CD44^hiCD24^lo CSCs (%) Repeat 1 / CD44^hiCD24^lo CSCs (%) Repeat 2 / CD44^hiCD24^lo CSCs (%) Repeat 3: n = 3
Protocol: Analogues of P1 (Table 6) were designed and synthesized in accordance with the procedure of Example 5. The ability of these analogues to inhibit cancer stem cells was determined using FACS analysis on MDA-MB-231 cells, which constitutively contain approximately 90% CD44^hiCD24^lo cancer stem cells, treated with the peptides.
as §1

| Structure (SMILES) | COI (Cell Count) [1] | COI, Live Single Cells (Cell Count) [1] | COI, Single (Cell Count) [1] | Total Cell Count [1] | Inhibition of CSCs (%) Repeat 1 [2] [%] | Inhibition of CSCs (%) Repeat 2 [2] [%] | Inhibition of CSCs (%) Repeat 3 [2] [%] | CD44^hiCD24^lo CSCs (%) [2] [%] | COI, Live Single CD44^hiCD24^lo CSCs (Cell Count) [2] | Average Inhibition of CSCs (%) [2] [%] | CD44^hiCD24^lo CSCs (%) Repeat 1 [2] [%] | CD44^hiCD24^lo CSCs (%) Repeat 2 [2] [%] | CD44^hiCD24^lo CSCs (%) Repeat 3 [2] [%] |
| --- | --- | --- | --- | --- | --- | --- | --- | --- | --- | --- | --- | --- | --- |
| CCCCCCCCCCCCCC(=O)N[C@@H](CC(C)C)C(=O)N[C@H](C(=O)N[C@@H](Cc1ccccc1)C(=O)N[C@H](C(=O)N[C@@H](Cc1ccccc1)C(=O)N[C@H](C(=O)N[C@@H](CC(C)C)C(=O)N[C@@H](CCCNC(=N)N)C(=O)N[C@@H](CCCCN)C(=O)NCC(=O)N[C@@H](CCCNC(=N)N)C(=O)N[C@@H](CCSC)C(=O)N[C@@H](CCSC)C(=O)N[C@@H](CC(=O)O)C(=O)N[C@H](C(=O)N[C@@H](CCCCN)C(=O)N[C@@H](CCCCN)C(N)=O)C(C)C)C(C)C)[C@@H](C)CC)[C@@H](C)O [Peptide 2853818, Myristoyl-LTFIFVLRKGRMMDVKK-NH2] (Myristoyl-LTFIFVLRKGRMMDVKK-NH2) | 33 | 20 | 25 | 275 | 88.46 | 97.94 | 93.25 | 25.00 | 5 | 93.21 | 10.34 | 1.85 | 6.06 |
| CCCCCCCCCCCCCC(=O)N[C@@H](CC(C)C)C(=O)N[C@H](C(=O)N[C@@H](Cc1ccccc1)C(=O)N[C@H](C(=O)N[C@@H](Cc1ccc(O)cc1)C(=O)N[C@@H](CCCNC(=N)N)C(=O)N[C@@H](CC(C)C)C(=O)N[C@@H](CCCNC(=N)N)C(=O)N[C@@H](CCCCN)C(=O)NCC(=O)N[C@@H](CCCNC(=N)N)C(=O)N[C@@H](CCSC)C(=O)N[C@@H](CCSC)C(=O)N[C@@H](CC(=O)O)C(=O)N[C@H](C(=O)N[C@@H](CCCCN)C(=O)N[C@@H](CCCCN)C(N)=O)C(C)C)[C@@H](C)CC)[C@@H](C)O [Peptide 2853814, Myristoyl-LTFIYRLRKGRMMDVKK-NH2] (Myristoyl-LTFIYRLRKGRMMDVKK-NH2) | 437 | 368 | 387 | 999 | 73.80 | 76.59 | 77.85 | 13.86 | 51 | 76.08 | 23.48 | 21.00 | 19.88 |
| CCCCCCCCCCCCCC(=O)N[C@H](C(=O)N[C@@H](Cc1ccccc1)C(=O)N[C@H](C(=O)N[C@@H](C)C(=O)N[C@@H](CCCNC(=N)N)C(=O)N[C@@H](CC(C)C)C(=O)N[C@@H](CCCNC(=N)N)C(=O)N[C@@H](CCCCN)C(=O)NCC(=O)N[C@@H](CCCNC(=N)N)C(=O)N[C@@H](CCSC)C(=O)N[C@@H](CCSC)C(=O)N[C@@H](CC(=O)O)C(=O)N[C@H](C(=O)N[C@@H](CCCCN)C(=O)N[C@@H](CCCCN)C(N)=O)C(C)C)[C@@H](C)CC)[C@@H](C)O [Peptide 2815305, Myristoyl-TFIARLRKGRMMDVKK-NH2] (Myristoyl-TFIARLRKGRMMDVKK-NH2) | 129 | 88 | 121 | 2870 | 7.19 | 10.83 | 2.94 | 93.18 | 82 | 6.99 | 83.18 | 80.00 | 87.10 |

Reference: patent US20200339691A1, “PROTEINACEOUS MOLECULES AND USES THEREFOR” (priority 2018, published 2020)
